Measurements as given in ChEMBL document CHEMBL5120900, “Structure-Based Discovery of a Series of NSD2-PWWP1 Inhibitors” (J Med Chem, 2022).
pIC50: −log10 of the molar value. Active and inactive are the calls of the source. The calls are words filed in the database; no cut-off is given here.

Experiments:
MM1.S = experiment: Antiproliferative activity against human MM1.S cells assessed as inhibition of cell proliferation measured after 6 days by CCK8 assay; type: functional, cell-based; details: 144 h
KMS-11 [1] = experiment: Induction of apoptosis in human KMS-11 cells assessed as early apoptotic cells at 10 uM measured after 72 hrs by Annexin V FITC/PI staining based flow cytometry analysis (reference value: 16.5 %); type: functional
[2] = molecular target: T1, Histone-lysine N-methyltransferase NSD2 (Homo sapiens) (UniProt O96028); experiment: Inhibition of NSD2 in human KMS-11 cells assessed as decrease in RRAS2 gene expression at 10 uM incubated for 72 hrs by RT-PCR analysis; type: cell-based
T1 sequence (whole entry): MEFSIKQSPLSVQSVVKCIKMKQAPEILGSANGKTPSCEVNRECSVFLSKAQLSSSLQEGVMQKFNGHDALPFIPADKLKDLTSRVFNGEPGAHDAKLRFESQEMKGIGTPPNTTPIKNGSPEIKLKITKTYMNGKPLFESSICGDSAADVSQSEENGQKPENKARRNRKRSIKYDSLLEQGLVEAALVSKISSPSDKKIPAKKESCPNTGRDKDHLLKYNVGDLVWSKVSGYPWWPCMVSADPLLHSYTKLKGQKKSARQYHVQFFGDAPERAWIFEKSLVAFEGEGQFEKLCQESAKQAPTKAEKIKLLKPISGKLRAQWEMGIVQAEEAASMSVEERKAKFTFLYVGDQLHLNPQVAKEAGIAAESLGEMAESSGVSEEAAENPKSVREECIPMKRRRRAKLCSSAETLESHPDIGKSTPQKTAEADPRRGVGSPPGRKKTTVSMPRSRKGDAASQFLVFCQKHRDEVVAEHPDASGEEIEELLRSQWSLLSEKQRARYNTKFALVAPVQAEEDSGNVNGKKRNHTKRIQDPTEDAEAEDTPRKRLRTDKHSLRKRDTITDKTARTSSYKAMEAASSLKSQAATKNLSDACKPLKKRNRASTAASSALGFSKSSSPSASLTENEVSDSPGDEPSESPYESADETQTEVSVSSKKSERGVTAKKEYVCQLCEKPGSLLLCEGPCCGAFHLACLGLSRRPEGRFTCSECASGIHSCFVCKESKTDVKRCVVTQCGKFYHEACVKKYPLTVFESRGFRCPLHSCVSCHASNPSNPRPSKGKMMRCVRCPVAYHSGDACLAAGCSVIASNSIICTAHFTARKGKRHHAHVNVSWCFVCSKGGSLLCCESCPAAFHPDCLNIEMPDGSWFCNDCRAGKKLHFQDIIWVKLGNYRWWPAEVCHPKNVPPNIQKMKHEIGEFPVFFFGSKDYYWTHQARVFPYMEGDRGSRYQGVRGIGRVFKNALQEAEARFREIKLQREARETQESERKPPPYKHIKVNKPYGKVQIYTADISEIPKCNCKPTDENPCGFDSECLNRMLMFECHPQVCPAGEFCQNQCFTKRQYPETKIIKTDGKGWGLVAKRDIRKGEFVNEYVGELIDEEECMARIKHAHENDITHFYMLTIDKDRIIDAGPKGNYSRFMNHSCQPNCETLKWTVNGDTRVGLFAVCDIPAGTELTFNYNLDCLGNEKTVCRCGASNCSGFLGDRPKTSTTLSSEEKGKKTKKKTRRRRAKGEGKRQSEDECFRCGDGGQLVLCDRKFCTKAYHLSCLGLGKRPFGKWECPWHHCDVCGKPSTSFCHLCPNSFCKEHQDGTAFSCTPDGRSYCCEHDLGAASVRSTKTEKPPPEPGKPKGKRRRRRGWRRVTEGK

RS4-11 = experiment: Antiproliferative activity against human RS4-11 cells assessed as inhibition of cell proliferation measured after 6 days by CCK8 assay; type: functional, cell-based; details: RS4-11, 144 h
[3] = molecular target: T1, Histone-lysine N-methyltransferase NSD2 (Homo sapiens); experiment: Inhibition of NSD2 in human KMS-11 cells assessed as decrease in PAK1 gene expression at 10 uM incubated for 72 hrs by RT-PCR analysis; type: cell-based
[4] = molecular target: T1, Histone-lysine N-methyltransferase NSD2 (Homo sapiens); experiment: Binding affinity to His6/Sumo-tagged NSD2 PWWP1 (unknown origin) (208 to 368 residues) expressed in Escherichia coli BL21 (DE3) assessed as increase in melting temperature by thermal shift assay; details: DDE = dose-dependent effect
KMS-11 [5] = experiment: Induction of apoptosis in human KMS-11 cells assessed as viable cells at 5 uM measured after 72 hrs by Annexin V FITC/PI staining based flow cytometry analysis (reference value: 69.4%); type: functional; details: read-out: Activity
[6] = molecular target: T1, Histone-lysine N-methyltransferase NSD2 (Homo sapiens); experiment: Inhibition of NSD2 in human RS4-11 cells assessed as decrease in NCAM1 gene expression at 10 uM incubated for 72 hrs by RT-PCR analysis; type: cell-based
[7] = molecular target: T1, Histone-lysine N-methyltransferase NSD2 (Homo sapiens); experiment: Inhibition of NSD2 in human KMS-11 cells assessed as decrease in TGFA gene expression at 10 uM incubated for 72 hrs by RT-PCR analysis; type: cell-based
MV4-11 [8] = experiment: Induction of apoptosis in human MV4-11 cells assessed as late apoptotic cells at 5 uM measured after 72 hrs by Annexin V FITC/PI staining based flow cytometry analysis (reference value: 3.02%); type: functional
[9] = molecular target: T2, Histone-lysine N-methyltransferase NSD2 (Homo sapiens, UniProt O96028); experiment: Binding affinity to N-terminal His6/Sumo-tagged NSD2 PWWP1 domain (211 to 350 residues) (unknown origin) expressed in Escherichia coli BL21 (DE3) using ATKAARKSAPATGGV-Lys (me)2-KPHRYRPG polypeptide as substrate incubated for 3 hrs by HTRF assay
T2 sequence (O96028 whole entry): T1 sequence (whole entry)

MV4-11 [10] = experiment: Induction of apoptosis in human MV4-11 cells assessed as necrotic cells at 5 uM measured after 72 hrs by Annexin V FITC/PI staining based flow cytometry analysis (reference value: […]); type: functional
[11] = molecular target: T1, Histone-lysine N-methyltransferase NSD2 (Homo sapiens); experiment: Inhibition of NSD2 in human RS4-11 cells assessed as decrease in TEMEL2 gene expression at 10 uM incubated for 72 hrs by RT-PCR analysis; type: cell-based
KMS-11 [12] = experiment: Induction of apoptosis in human KMS-11 cells assessed as necrotic cells at 5 uM measured after 72 hrs by Annexin V FITC/PI staining based flow cytometry analysis (reference value: 0.88%); type: functional

pIC50 (MM1.S): 4.96 | inhibition [2]: Active | pIC50 (RS4-11): 5.20 | inhibition [3]: Active | Activity [4]: Dde | inhibition [6]: Active | inhibition [7]: Active | pIC50 [9]: 6.96 | inhibition [11]: Active
Structure (SMILES): Cc1cc(CN2CCC(N)CC2)cc(C)c1-c1ncn(C)c1-c1ccc(C#N)c2ccccc12
Activity (KMS-11 [1]): 28.7% | viability at 5 µM (KMS-11 [5]): 61.7% | Activity (MV4-11 [8]): 2.37% | Activity (MV4-11 [10]): 0.4% | Activity (KMS-11 [12]): 0.69%
